Test system: VEGF stimulated Phospho-ERK in HUVEC
Test: Growth factor stimulated p-ERK assay in HUVECs (VEGF stimulation, ERK1/2 Bioplex)
Type: cell-based
Settings: Homo sapiens, compound 2 hrs, then 50 ng/ml VEGF 10 min; for inhibition at 0.1 µM: @ 100 nM
Method: Growth Factor Stimulated p-ERK assay in HUVECs
Exponentially growing human endothelial HUVECs cells (human umbilical vein endothelial cells, cat# CC-2517, Cambrex, Walkersville, Md.) were seeded at twenty five thousand cells/well in 96 well plates in EBM-2 MV medium with growth factors (cat# CC-3202, Cambrex) and grown at 37° C. in 5% CO2. Sixteen hours post-plating, the cells were changed to serum-free medium (RPMI 1640 containing 0.1% BSA (bovine serum albumin) and compounds were added at different concentrations for 2 hrs, after which the cells were stimulated for 10 min with 50 ng/ml of either VEGF (vascular endothelial growth factor, Protein Sciences, Meriden, Conn.) or bFGF (basic fibroblast growth factor cat# PHG0026, Biosource International, Camarillo, Calif.). The rest of the assay was performed per manufacturer indications for the ERK½ Bioplex assay (cat#171-304004, Bio-Rad, Hercules, Calif.). After removing culture medium by aspiration, the cells were quickly rinsed with 100 μl of cell wash buffer A to stop treatment reaction. Eighty microliters of cell lysis buffer were then immediately added to each well of the 96 well plate which was put on ice. Cells in each well were lysed by pipetting up and down 5 times with a multi-channel pipet. The plate was then agitated on a microtiter plate shaker at 300 rpm for 20 min at 4° C. Cellular debris were pelleted by centrifugation at 4500 g for 15 min at 4° C. and the supernatant was collected. Forty five microliters of supernatant was diluted with an equal volume of Bio-Plex phosphoprotein assay Buffer B, The coupled and color coated beads were added into a 96 well filter plate, and the prepared lysates were added. The beads and lysate mixture was incubated at room temperature for 15-18 hrs. The following day, the plate was vacuum-filtered and then washed 3×. Twenty-five microliters of detection antibody solution were added to each well and the plate was then incubated for 30 min at room temperature. The plate was then vaccum-filtered and washed as described previously. Fifty microliters of streptavidin-PE solution was added to each well, the plate was incubated for 10 min at room temperature and then was then vaccum-filtered and washed as described above. One hundred twenty-five microliters of resuspension buffer was added to each well and data were acquired on the Luminex 100 instrument (Bio-Rad).

CCOC(=O)c1cn2ncnc(N)c2c1-c1ccc(NC(=O)Nc2cc(C(F)(F)F)ccc2F)cc1 [Example 1, ethyl 4-amino-5-{4-[({[2-fluoro-5-(trifluoromethyl)phenyl]amino}carbonyl)amino]phenyl}pyrrolo[2,1-f][1,2,4]triazine-6-carboxylate]
inhibition at 0.1 µM: > 50%

CCOC(=O)c1cn2ncnc(N)c2c1-c1ccc(NC(=O)Nc2ccccc2OC(F)(F)F)cc1 [Example 8, ethyl 4-amino-5-{4-[({[2-(trifluoromethoxy)phenyl]amino}carbonyl)amino]phenyl}pyrrolo[2,1-f][1,2,4]triazine-6-carboxylate]
inhibition at 0.1 µM: > 50%

CCOC(=O)c1cn2ncnc(N)c2c1-c1ccc(NC(=O)Nc2cccc(OC(F)(F)F)c2)cc1 [Example 9, ethyl 4-amino-5-{4-[({[3-(trifluoromethoxy)phenyl]amino}carbonyl)amino]phenyl}pyrrolo[2,1-f][1,2,4]triazine-6-carboxylate]
inhibition at 0.1 µM: > 50%

CCOC(=O)c1cn2ncnc(N)c2c1-c1ccc(NC(=O)Nc2ccc(OC(F)(F)F)cc2)cc1 [Example 11, ethyl 4-amino-5-{4-[({[4-(trifluoromethoxy)phenyl]amino}carbonyl)amino]phenyl}pyrrolo[2,1-f][1,2,4]triazine-6-carboxylate]
inhibition at 0.1 µM: < 50% | inhibition at 1 µM: > 50%

CCOC(=O)c1cn2ncnc(N)c2c1-c1ccc(NC(=O)Nc2ccc3c(cnn3C)c2)cc1 [Example 12]
inhibition at 0.1 µM: > 50%

CCOC(=O)c1cn2ncnc(N)c2c1-c1ccc(NC(=O)Nc2ccc3c(c2)OC(F)(F)O3)cc1 [Example 14, ethyl 4-amino-5-[4-({[(2,2-difluoro-1,3-benzodioxol-5-yl)amino]carbonyl}amino)phenyl]pyrrolo[2,1-f][1,2,4]triazine-6-carboxylate]
inhibition at 0.1 µM: < 50% | inhibition at 1 µM: < 50% | inhibition at 10 µM: > 50%

CCOC(=O)c1cn2ncnc(N)c2c1-c1ccc(NC(=O)Nc2ccc(Cl)c(Cl)c2)cc1 [Example 18, ethyl 4-amino-S-[4-({[(3,4-dichlorophenyl)amino]carbonyl}amino)phenyl]pyrrolo[2,1-f][1,2,4]triazine-6-carboxylate]
inhibition at 0.1 µM: < 50% | inhibition at 1 µM: < 50% | inhibition at 10 µM: > 50%

CCOC(=O)c1cn2ncnc(N)c2c1-c1ccc(NC(=O)Nc2ccc3c(c2)OC(F)(F)C(F)(F)O3)cc1 [Example 22, ethyl 4-amino-5-[4-({[(2,2,3,3-tetrafluoro-2,3-dihydro-1,4-benzodioxin-6-yl)amino]carbonyl}amino)phenyl]pyrrolo[2,1-f][1,2,4]triazine-6-carboxylate]
inhibition at 0.1 µM: < 50% | inhibition at 1 µM: > 50%

CCOC(=O)c1cn2ncnc(N)c2c1-c1ccc(NC(=O)Nc2ccccc2)cc1 [Example 23, ethyl 4-amino-5-{4-[(anilinocarbonyl)amino]phenyl}pyrrolo[2,1-f][1,2,4]triazine-6-carboxylate]
inhibition at 0.1 µM: > 50%

CCOC(=O)c1cn2ncnc(N)c2c1-c1ccc(NC(=O)Nc2ccccc2C(C)C)cc1 [Example 24, ethyl 4-amino-5-[4-({[(2-isopropylphenyl)amino]carbonyl}amino)phenyl]pyrrolo[2,1-f][1,2,4]triazine-6-carboxylate]
inhibition at 0.1 µM: < 50% | inhibition at 1 µM: > 50%

CCOC(=O)c1cn2ncnc(N)c2c1-c1ccc(NC(=O)Nc2cc(C(F)(F)F)cc(C(F)(F)F)c2)cc1 [Example 26, ethyl 4-amino-5-{4-[({[3,5-bis(trifluoromethyl)phenyl]amino}carbonyl)amino]phenyl}pyrrolo[2,1-f][1,2,4]triazine-6-carboxylate]
inhibition at 0.1 µM: < 50% | inhibition at 1 µM: > 50%

CCOC(=O)c1cn2ncnc(N)c2c1-c1ccc(NC(=O)Nc2cc(C(F)(F)F)ccc2N2CCOCC2)cc1 [Example 27, ethyl 4-amino-5-{4-[({[2-morpholin-4-yl-5-(trifluoromethyl)phenyl]amino}carbonyl)amino]phenyl}pyrrolo[2,1-f][1,2,4]triazine-6-carboxylate]
inhibition at 0.1 µM: > 50%

CCOC(=O)c1cn2ncnc(N)c2c1-c1ccc(NC(=O)Nc2cc(OC)ncn2)cc1 [Example 29, ethyl 4-amino-5-[4-({[(6-methoxypyrimidin-4-yl)amino]carbonyl}amino)phenyl]pyrrolo[2,1-f][1,2,4]triazine-6-carboxylate]
inhibition at 0.1 µM: < 50% | inhibition at 1 µM: > 50%

COCCNCc1cn2ncnc(N)c2c1-c1ccc(NC(=O)Nc2cc(C(F)(F)F)ccc2F)cc1 [Example 32, N-[4-(4-amino-6-{[(2-methoxyethyl)amino]methyl}pyrrolo[2,1-f][1,2,4]triazin-5-yl)phenyl]-N′-[2-fluoro-5-(trifluoromethyl)phenyl]urea]
inhibition at 0.1 µM: > 50%

CN(C)CCNCc1cn2ncnc(N)c2c1-c1ccc(NC(=O)Nc2cc(C(F)(F)F)ccc2F)cc1 [Example 37, N-{4-[4-amino-6-({[2-(dimethylamino)ethyl]amino}methyl)pyrrolo[2,1-f][1,2,4]triazin-5-yl]phenyl}-N′-[2-fluoro-5-(trifluoromethyl)phenyl]urea]
inhibition at 0.1 µM: < 50% | inhibition at 1 µM: > 50%

Nc1ncnn2cc(CNCCC(F)(F)F)c(-c3ccc(NC(=O)Nc4cc(C(F)(F)F)ccc4F)cc3)c12 [Example 39, N-[4-(4-amino-6-{[(3,3,3-trifluoropropyl)amino]methyl}pyrrolo[2,1-f][1,2,4]triazin-5-yl)phenyl]-N′-[2-fluoro-5-(trifluoromethyl)phenyl]urea]
inhibition at 0.1 µM: < 50% | inhibition at 1 µM: > 50%

COCCN1CCN(Cc2cn3ncnc(N)c3c2-c2ccc(NC(=O)Nc3cc(C(F)(F)F)ccc3F)cc2)CC1 [Example 41, N-[4-(4-amino-6-{[4-(2-methoxyethyl)piperazin-1-yl]methyl}pyrrolo[2,1-f][1,2,4]triazin-5-yl)phenyl]-N′-[2-fluoro-5-(trifluoromethyl)phenyl]urea]
inhibition at 0.1 µM: < 50% | inhibition at 1 µM: > 50%

Nc1ncnn2cc(CNc3cccnc3)c(-c3ccc(NC(=O)Nc4cc(C(F)(F)F)ccc4F)cc3)c12 [Example 47, N-(4-{4-amino-6-[(pyridin-3-ylamino)methyl]pyrrolo[2,1-f][1,2,4]triazin-5-yl}phenyl)-N′-[2-fluoro-5-(trifluoromethyl)phenyl]urea]
inhibition at 0.1 µM: < 50% | inhibition at 1 µM: > 50%

CCOC(=O)c1cn2ncnc(N)c2c1-c1ccc(NC(=O)Nc2cc(C(C)(C)C)nn2C)cc1 [Example 49, ethyl 4-amino-5-[4-({[(3-tert-butyl-1-methyl-1H-pyrazol-5-yl)amino]carbonyl}amino)phenyl]pyrrolo[2,1-f][1,2,4]triazine-6-carboxylate]
inhibition at 0.1 µM: > 50%

Nc1ncnn2cc(C(=O)NCCCN3CCCC3)c(-c3ccc(NC(=O)Nc4cc(C(F)(F)F)ccc4F)cc3)c12 [Example 62, 4-amino-5-{4-[({[2-fluoro-5-(trifluoromethyl)phenyl]amino}carbonyl)amino]phenyl}-N-(3-pyrrolidin-1-ylpropyl)pyrrolo[2,1-f][1,2,4]triazine-6-carboxamide]
inhibition at 0.1 µM: < 50% | inhibition at 1 µM: < 50% | inhibition at 10 µM: > 50%

Nc1ncnn2cc(CCCN3CCOCC3)c(-c3ccc(NC(=O)Nc4cc(C(F)(F)F)ccc4F)cc3)c12 [Example 66, N-{4-[4-amino-6-(3-morpholin-4-ylpropyl)pyrrolo[2,1-f][1,2,4]triazin-5-yl]phenyl}-N′-[2-fluoro-5-(trifluoromethyl)phenyl]urea]
inhibition at 0.1 µM: < 50% | inhibition at 1 µM: > 50%

From patent US7563791B2, “Pyrrolotriazine derivatives useful for treating hyper-proliferative disorders and diseases associated with angiogenesis” (Bayer Pharmaceuticals Corporation, priority 2004, dated 2009)
